The record followed here is PubChem BioAssay (NCI).

What all share (experiment): NCI anticancer screen, dose series, 48 h
The test system of assay [1] is UACC-257 melanoma.
Assay [2] concerns COLO 205 colon.
For assay [3], the system named is SK-MEL-2 melanoma.
The subject of assay [4] is HT29 colon.
Assay [5] relates to HOP-92 NSCLC.
Assay [6] has as its system PC-3 prostate.
Assay [7] deals with NCI-H226 lung.
The subject of assay [8] is TK-10 renal.
Assay [9] deals with SF-268 CNS.
Assay [10] relates to HL-60(TB) leukemia.

Where “and” joins values, the source holds several entries; their conditions need not be identical. Equal entries are not always repeated.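 48-hour exposure; five concentrations; linearly interpolated endpoints. GI50 = concentration required for 50% inhibition of growth. TGI: concentration producing complete growth inhibition.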

Take `O=C(COc1ccc(Cl)cc1Cl)NNc1ccc([N+](=O)[O-])cc1`: the GI50 in assay [1] is 99600 nM; in assay [2], 95700 nM; in [3] it was 22 µM; in [4], > 100000 nM; in assay [5], 12100 nM; in assay [6], > 100000 nM. Further, the GI50 is 28900 nM in [7], 30100 nM in assay [8], 36900 nM in assay [9] and > 100000 nM in assay [10]. The TGI in assay [1] is > 100 µM; in assay [2], > 100 µM; in assay [3] it was 39.7 µM; in assay [4], > 100 µM; in assay [5], 31700 nM; in assay [6] it was > 100 µM. The TGI was > 100 µM in assay [7], 74.2 µM in [8], > 100 µM in assay [9] and > 100 µM in assay [10].
On to `CCN1C(=O)N(CC)C2C1NN=c1s/c(=C\c3ccc(Br)cc3)c(=O)n12` (stereo not given), for which the GI50 in assay [1] is 849 nM; in assay [2], 258 nM; in assay [3] it was 4.91 µM; in [4], 75.7 nM; in assay [5], 36.5 nM; in assay [6], 168 nM. The GI50 in assay [8] is 741 nM; in assay [9] it was 852 nM; in assay [10], 107 nM. Besides, the TGI in assay [1] is > 100 µM; in assay [3], > 100 µM; in [4] it was > 100 µM; in assay [5] it was > 63700 nM; in assay [6] it was > 100 µM; in assay [7] it was > 100 µM. Further, the values for the TGI in assay [8], in [9] and in assay [10] were > 100 µM, > 100 µM and 1.43 µM, respectively.
`COc1cccc(/C=C/C(=O)c2cc3c(N)c(C(=O)Nc4ccccc4)sc3nc2C)c1`: the GI50 is 1900 nM in assay [1]; 1540 nM in [2]; 1.75 µM in assay [3]; 1210 nM in assay [4]; 1080 nM in [5]; 1470 nM in assay [6]. For the same molecule, the GI50 was 1150 nM in assay [7], 1560 nM in [8], 1470 nM in assay [9] and 1020 nM in assay [10]. The TGI in assay [1] came to 8.97 µM; in [2] it was 4.71 µM; in assay [3] it was 8.63 µM; in assay [4], 3.42 µM; in [5], 4240 nM; in assay [6] it was 5.06 µM. Further, the TGI in assay [7] amounted to 2.75 µM; in assay [8], 5.47 µM; in assay [9] it was 5.82 µM; in assay [10], 2.72 µM.
In the case of `C=C1[C@H](O)C[C@@H](C(C)C(O)CC=C(C)C)[C@@H](O)[C@@H]2C(C)=CC[C@@H]12` (stereo not given in full), the GI50 was > 100000 nM in assay [1]; > 100000 nM in [2]; > 100 µM in [3]; > 100000 nM in assay [4]; > 100000 nM in assay [5]; > 100000 nM in assay [6]. Besides, the GI50 in [7], in assay [8], in [9] and in assay [10] was > 100000 nM throughout. Further, the TGI in [1] was > 100 µM; in assay [2], > 100 µM; in [3], > 100 µM; in assay [4], > 100 µM; in assay [5], > 100000 nM; in assay [6], > 100 µM. Further, the TGI in assay [7], in [8], in [9] and in [10] was > 100 µM each time.
For the molecule `OC(CBr)C(O)C(O)C(O)CBr` (stereo not given), the TGI in assay [1] is > 100 µM; in assay [2] it was > 100 µM; in [3] it was > 100 µM; in assay [4] it was > 100 µM; in [5], > 100000 nM; in assay [6], > 100 µM. In addition, the TGI in assay [7] was > 100 µM; in assay [8] it was > 100 µM; in [9], > 100 µM; in [10] it was > 67.5 µM. The GI50 is 35800 nM and > 86800 nM in [5]; > 40600 nM and 19300 nM in [9].
For the molecule `Oc1ccc(Cl)cc1N=Nc1c(O)ccc2ccccc12`, the TGI was > 100 µM in assay [1]; > 100 µM in [2]; > 100 µM in assay [3]; > 100 µM in assay [4]; > 100000 nM in assay [5]; > 100 µM in assay [6]. The TGI in assay [7], in [8], in [9] and in assay [10] was > 100 µM in each case.
As for `Cc1ccc2c(c1)n([O-])c(C(F)(F)F)c(C(=O)c1ccco1)[n+]2=O`, the GI50 in assay [1] was 924 nM; in assay [2], 816 nM; in assay [3], 4.4 µM; in assay [4], 2070 nM; in assay [5] it was 55.6 nM; in assay [6], 306 nM. Moreover, the GI50 in [7] was 755 nM; in [8] it was 1940 nM; in [9] it was 420 nM; in assay [10], 1090 nM. Moreover, the TGI was 3.12 µM in assay [1]; 2.06 µM in assay [2]; 34.7 µM in [3]; 20.7 µM in assay [4]; 445 nM in [5]; 4.82 µM in assay [6]. In addition, the TGI in [7] is 2.09 µM; in assay [8], 8.74 µM; in [9], 2.48 µM; in [10], 21.8 µM.
For `COc1cc(-c2cc(-c3ccc(Nc4nc(Nc5ccc(Cl)cc5)nc(Nc5ccc(Cl)cc5)n4)cc3)no2)cc(OC)c1OC`, the GI50 in assay [1] was 23500 nM; in assay [2], 2260 nM; in [3], 5.04 µM; in assay [4], 16900 nM; in assay [5], 16.6 nM; in assay [6], 565 nM. The GI50 is 27000 nM in assay [7], 25400 nM in [8], 6050 nM in assay [9] and 2320 nM in assay [10]. The TGI in assay [1] is > 100 µM; in assay [2] it was 21.3 µM; in assay [3], > 100 µM; in [4], > 100 µM; in assay [5], 320 nM; in [6], 9.19 µM. Further, the TGI in [7] is > 100 µM; in [8] it was > 100 µM; in [9], > 100 µM; in assay [10], 55.5 µM.
For `CN1c2cccc[c]2[Sn]([CH3])([CH3])[c]2ccccc21`, the GI50 in assay [1] was < 10 nM; in assay [2], 15 nM; in assay [3] it was < 0.0209 µM; in assay [4], < 12 nM; in assay [5], 10 nM; in assay [6], 19.1 nM. Also, the GI50 was < 13.8 nM in assay [7], < 19.2 nM in assay [8], < 17.8 nM in assay [9] and < 10 nM in assay [10]. The TGI in assay [1] was < 0.0217 µM; in [2], 0.0572 µM; in assay [3], 0.18 µM; in assay [4], < 0.0249 µM; in [5] it was 104 nM; in assay [6], 0.154 µM. Besides, the TGI amounted to 0.132 µM in assay [7], 0.135 µM in assay [8], 0.165 µM in assay [9] and 0.0569 µM in [10].
For `COc1cc(N2CCN(C(C)C)CC2)ccc1Nc1nc(Nc2ccc(F)cc2C(N)=O)c2cc[nH]c2n1`, the GI50 in assay [1] is 194 nM; in [2], 24.1 nM; in assay [3], 0.163 µM; in assay [4], 20.8 nM; in assay [5] it was 14.8 nM; in assay [6], 3750 nM. Also, the GI50 in [7] is 1110 nM; in assay [8] it was 170 nM; in assay [9], 3360 nM; in [10], 59.4 nM. Further, the TGI in [1] came to 5.6 µM; in assay [2], 0.126 µM; in assay [3], 1.77 µM; in [4] it was 2.88 µM; in assay [5] it was 687 nM; in assay [6], 12.9 µM. For the same molecule, the TGI in assay [7] came out at 6.65 µM; in [8], 4.68 µM; in [9] it was 7.92 µM; in assay [10], 4.7 µM.
As to `Cn1cc(-c2[nH]c3cc(NC(=O)[C@H](N)C4CCCCC4)cc4c3c2C=NNC4=O)cn1`, the GI50 in assay [1] is 4160 nM and > 6970 nM; in [2], 922 nM and 632 nM; in assay [3] it was 0.262 µM; in [4], 1440 nM and 994 nM; in assay [5], 78.3 nM and 200 nM; in assay [6], 720 nM and 1960 nM. Moreover, the GI50 in assay [7] is 963 nM and 398 nM; in [8] it was 675 nM and 467 nM; in [9], 305 nM and 324 nM; in [10], 292 nM and 296 nM. Moreover, the TGI in assay [1] was 18.8 µM and > 10 µM; in assay [2], 3.6 µM and > 6.26 µM; in assay [3], > 10 µM; in assay [4], 8.24 µM and > 10 µM; in [5], 821 nM and > 4520 nM; in assay [6], 18.3 µM and > 10 µM. The TGI in assay [7] is 17.8 µM and > 10 µM; in assay [8], 12.7 µM and > 10 µM; in [9] it was 13.1 µM and > 10 µM; in [10], 0.775 µM and > 4.21 µM.
